Results from patent US4251520A, “Glucofuranose derivatives” (priority 1976, dated 1981).
Where two headings read alike, the source gives them in different places.

Assays:
[1] = system: edema induced by formalin; assay: Anti-inflammatory activity, formalin-induced edema; assay type: in vivo, rat; conditions: po, read-out: % inhibition of edema induced by formalin
Experimental: (§1) Pharmacological tests were carried out to evaluate the acute toxicity, anti-inflammatory and capillary permeability action, antipyretic, analgesic and anti-spasmodic in vitro action.

[2] = system: edema induced by carrageenan; assay: Anti-inflammatory activity, carrageenin-induced oedema; assay type: in vivo, rat; conditions: for inhibition in vivo at 500 mg/kg: po, read-out: % inhibition of edema induced by carrageenan
Excerpt: Beginning, therefore, with D-glucose, we have prepared 1,2:5,6-di-O-isopropylidene-α-D-glucofuranose (II): [drawing 2] as well as 1,2-O-isopropylidene-α-D-glucofuranose and 1,2-O-isopropylidene-3,5,6-tri-O-benzyl-α-D-glucofuranose (1; Glen W. L., Myers G. S., Grant G. A., J. Chem. Soc., 2568/1951; (2) Meyer A. S., Reichstein T., Helv. Chim. Acta, 29, 139/1946; (3) Huber G., Rossi A., Helv. Chim. Acta, 51, 1185/1968) and have compared these compounds with (I) for anti-inflammatory activity against carrageenin-induced oedema (500 mg/kg, p.o. in rats).

[3] = Analgesic activity, hot plate test; assay type: in vivo, mouse; conditions: po, read-out: Analgesic activity, increase of reaction time %
Experimental: as §1

spasm by acetylcholine = assay: Antispasmodic activity in vitro, spasm by acetylcholine
Experimental: as §1

in vivo = conditions: mouse, in vivo, po
capillary permeability [4] = conditions: 500 mg/kg p.o. mouse
Experimental: as §1

spasm by histamine = assay: Antispasmodic activity in vitro, spasm by histamine
Experimental: as §1

edema induced by dextran = assay: Anti-inflammatory activity, dextran-induced edema; assay type: in vivo, rat; conditions: po, read-out: % inhibition of edema induced by dextran
Experimental: as §1

Antipyretic activity = assay type: in vivo, rat; conditions: for Antipyretic activity (potency in comparison with aspirin = 100): 400 mg/kg p.o. rat; for Antipyretic action (in words): rat, in vivo
Experimental: as §1

[5] = Analgesic activity, protection from writhing; assay type: in vivo, mouse; conditions: po, read-out: Analgesic activity, protection from writhing %
Experimental: as §1

granuloma = assay: Granuloma cotton pellet test; conditions: for inhibition in vivo at 200 mg/kg: Rattus norvegicus, po, read-out: % inhibition of granuloma
Experimental: as §1

mouse = assay: in vivo; conditions: oral route, even at a dose of 4,000 mg./kg.
capillary permeability [6] = assay: Capillary permeability test; conditions: 500 mg/kg p.o. mouse
Experimental: as §1

[7] = background; cited from earlier work
[8] = Analgesic action (overall); conditions: mouse, in vivo
Experimental: as §1

[9] = system: oedema induced by carrageenin, dextran and formalin; assay: Anti-inflammatory activity tests (oedema by carrageenin, dextran and formalin); assay type: in vivo; conditions: rat
Experimental: as §1

[10] = Preliminary pharmacological screening (overall); assay type: in vivo
Experimental: as §1

[11] = 500 mg/kg p.o. mouse, hot plate test

Structure (SMILES) | Antispasmodic activity in vitro, ED50, inhib. of spasm by acetylcholine (spasm by acetylcholine) | LD50 (in vivo) | Antispasmodic activity in vitro, ED50, inhib. of spasm by histamine (spasm by histamine) | Antipyretic activity (potency in comparison with aspirin = 100) (Antipyretic activity) | Antipyretic action (in words) (Antipyretic activity) | inhibition in vivo at 200 mg/kg (granuloma) | inhibition in vivo at 500 mg/kg ([1]; 500 mg/kg p.o. rat) | inhibition in vivo at 500 mg/kg ([2]; 500 mg/kg p.o. rat) | change in vivo at 500 mg/kg [3, 11] | Oral toxicity / tolerance (in words) (mouse) | Capillary permeability, decrease % (capillary permeability [6]) | inhibition in vivo at 500 mg/kg (edema induced by dextran; 500 mg/kg p.o. rat) | inhibition in vivo at 500 mg/kg ([5]; 500 mg/kg p.o. mouse) | other results
CC1(C)OCC(C2OC3OC(C)(C)OC3C2O)O1 (stereo not shown) | > 100 µg/mL | 4000 mg/kg | > 100 µg/mL | 63% | present | 0% | – | – | – | – | – | – | – | inhibition in vivo at 500 mg/kg ([1]; Rattus norvegicus): 19%; inhibition in vivo at 500 mg/kg ([2]; Rattus norvegicus): 33%; Anti-inflammatory activity compared with (I), preliminary tests ([2]; carrageenin-induced oedema, 500 mg/kg, p.o. in rats): fully comparable with that of (I); change in vivo at 500 mg/kg ([3]; Mus musculus): 0%; Capillary permeability, decrease % (capillary permeability [4]): 46%; inhibition in vivo at 500 mg/kg (edema induced by dextran; Rattus norvegicus): 0%; inhibition in vivo at 500 mg/kg ([5]; Mus musculus): 20%
CCOC1O[C@H]([C@@H](COCc2ccccc2)OCc2ccccc2)[C@H](OCc2ccccc2)[C@H]1O (stereo partly drawn) [I, ethyl 3,5,6-tri-O-benzyl-D-glucofuranoside, reference compound] | 30 µg/mL | > 4000 mg/kg | 20 µg/mL | 9% | little or no activity | 0% | 14% | 20% | 10% | well tolerated | 48% | 0% | 0% | Known pharmacological activity (in words) [7]: anti-inflammatory and anti-allergic activity; Analgesic action (in words) [8]: moderate or nil
C=CCOC1C(C2COC(C)(C)O2)OC2OC(C)(C)OC21 [IX, 3-O-allyl-1,2:5,6-di-O-isopropylidene-α-D-glucofuranose] | 60 µg/mL | > 4000 mg/kg | 60 µg/mL | 44% | retained | 16% | 29% | 68% | 0% | well tolerated | 43% | 39% | 20% | Anti-inflammatory potency compared with aspirin and phenylbutazone (in words) [9]: as potent as or more potent than aspirin and phenylbutazone; Inhibition of oedema induced by carrageenin, dextran and formalin, compared with (I) (in words) [9]: clearly more active than (I); Activity against spasms produced by acetylcholine (in words) (spasm by acetylcholine): moderately active; Inhibitory activity in the granuloma cotton pellet test (in words) (granuloma; rat, in vivo): some inhibitory activity; Spectrum and potency of action in comparison with (I) (in words) [10]: analogous or even better spectrum and potency of action
